Key:
[1] = system: Bifidobacterium breve; test: Antibacterial activity against Bifidobacterium breve HM1120 assessed as reduction in microbial growth incubated for 48 hrs by broth microdilution method; assay type: functional
[2] = system: Bacteroides fragilis; test: Antibacterial activity against Bacteroides fragilis HM 20 assessed as reduction in microbial growth incubated for 48 hrs by broth microdilution method; assay type: functional
[3] = system: Bifidobacterium longum; test: Antibacterial activity against Bifidobacterium longum HM 846 assessed as reduction in microbial growth incubated for 48 hrs by broth microdilution method; assay type: functional
[4] = system: Clostridioides difficile; test: Bactericidal activity against Clostridioides difficile NR-32904 assessed as reduction in microbial growth by broth microdilution method; assay type: functional
[5] = system: Clostridioides difficile; test: Bactericidal activity against Clostridioides difficile NR-49278 assessed as reduction in microbial growth by broth microdilution method; assay type: functional
[6] = system: Bifidobacterium breve; test: Antibacterial activity against Bifidobacterium breve HM 412 assessed as reduction in microbial growth incubated for 48 hrs by broth microdilution method; assay type: functional
[7] = system: Lactobacillus crispatus; test: Antibacterial activity against Lactobacillus crispatus HM 420 assessed as reduction in microbial growth incubated for 48 hrs by broth microdilution method; assay type: functional
[8] = system: Staphylococcus aureus; test: Antibacterial activity against methicillin resistant Staphylococcus aureus USA300 assessed as reduction in microbial growth by CLSI based broth microdilution method; assay type: functional
[9] = system: Clostridioides difficile; test: Antibacterial activity against Clostridioides difficile NR-49288 assessed as reduction in microbial growth incubated for 48 hrs by broth microdilution method; assay type: functional
[10] = system: Clostridioides difficile; test: Bactericidal activity against Clostridioides difficile ATCC BAA1870 assessed as reduction in microbial growth by broth microdilution method; assay type: functional
[11] = molecular target: UDP-N-acetylglucosamine 1-carboxyvinyltransferase (Escherichia coli K-12, UniProt P0A749); test: Inhibition of Escherichia coli K12 His-tagged MurA expressed in Escherichia coli BL21 cells using UNAG as substrate pre incubated for 15 mins followed by substrate addition and measured after 15 mins by microplate reader analysis
Sequence of UDP-N-acetylglucosamine 1-carboxyvinyltransferase (P0A749 whole entry): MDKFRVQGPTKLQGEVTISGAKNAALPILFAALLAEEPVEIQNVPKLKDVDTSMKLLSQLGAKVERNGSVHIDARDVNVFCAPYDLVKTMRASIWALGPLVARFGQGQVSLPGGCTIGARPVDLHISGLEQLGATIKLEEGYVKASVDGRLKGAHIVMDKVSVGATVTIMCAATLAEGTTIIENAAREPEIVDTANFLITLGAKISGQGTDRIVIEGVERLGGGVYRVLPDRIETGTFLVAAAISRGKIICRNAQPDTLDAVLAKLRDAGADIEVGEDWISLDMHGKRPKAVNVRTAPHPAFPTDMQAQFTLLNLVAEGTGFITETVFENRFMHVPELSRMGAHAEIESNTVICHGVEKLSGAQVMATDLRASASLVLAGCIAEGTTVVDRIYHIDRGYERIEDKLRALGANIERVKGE

[12] = system: Bacteroides fragilis; test: Antibacterial activity against Bacteroides fragilis HM 718 assessed as reduction in microbial growth incubated for 48 hrs by broth microdilution method; assay type: functional
[13] = system: Bifidobacterium angulatum; test: Antibacterial activity against Bifidobacterium angulatum HM 1189 assessed as reduction in microbial growth incubated for 48 hrs by broth microdilution method; assay type: functional
[14] = system: Clostridioides difficile; test: Selectivity ratio of MBC for antibacterial activity against Clostridioides difficile NR-49284 to MIC for antibacterial activity against Clostridioides difficile NR-49284; assay type: functional
[15] = molecular target: UDP-N-acetylglucosamine 1-carboxyvinyltransferase (Escherichia coli K-12) (UniProt P0A749); test: Inhibition of Escherichia coli K12 His-tagged MurA expressed in Escherichia coli BL21 cells at 50 uM using UNAG as substrate pre incubated for 15 mins followed by substrate addition and measured after 15 mins by microplate reader analysis relative to control; details: time 30.0 min
Sequence of UDP-N-acetylglucosamine 1-carboxyvinyltransferase (Escherichia coli K-12) (P0A749 whole entry): as above

[16] = system: Clostridioides difficile; test: Antibacterial activity against Clostridioides difficile NR-32903 assessed as reduction in microbial growth incubated for 48 hrs by broth microdilution method; assay type: functional
[17] = system: Clostridioides difficile; test: Antibacterial activity against Clostridioides difficile NR-49287 assessed as reduction in microbial growth incubated for 48 hrs by broth microdilution method; assay type: functional
[18] = system: Clostridioides difficile; test: Antibacterial activity against Clostridioides difficile NR-49283 assessed as reduction in microbial growth incubated for 48 hrs by broth microdilution method; assay type: functional
[19] = Stability of compound in Staphylococcus aureus Newman cell lysate at 10 uM incubated for 24 hrs at 37 degC by UHPLC-MS/MS analysis; assay type: ADME, subcellular
[20] = system: Clostridioides difficile; test: Antibacterial activity against Clostridioides difficile NR-49282 assessed as reduction in microbial growth incubated for 48 hrs by broth microdilution method; assay type: functional
[21] = system: Clostridioides difficile; test: Bactericidal activity against Clostridioides difficile NR-32895 assessed as reduction in microbial growth by broth microdilution method; assay type: functional
[22] = system: Clostridioides difficile; test: Antibacterial activity against Clostridioides difficile HM-88 assessed as reduction in microbial growth incubated for 48 hrs by broth microdilution method; assay type: functional
[23] = system: Clostridioides difficile; test: Antibacterial activity against Clostridioides difficile NR-49284 assessed as reduction in microbial growth incubated for 48 hrs by broth microdilution method; assay type: functional
[24] = system: Staphylococcus aureus; test: Antibacterial activity against Staphylococcus aureus Newman D2C NCTC 10833 assessed as reduction in microbial growth incubated for 16 hrs by serial dilution method; assay type: functional
[25] = system: Escherichia coli; test: Antibacterial activity against Escherichia coli harboring tolC deletion mutant assessed as reduction in microbial growth incubated for 16 hrs by serial dilution method; assay type: functional
[26] = system: Bacteroides fragilis; test: Antibacterial activity against Bacteroides fragilis HM 719 assessed as reduction in microbial growth incubated for 48 hrs by broth microdilution method; assay type: functional
[27] = system: Clostridioides difficile; test: Antibacterial activity against Clostridioides difficile NR-49291 assessed as reduction in microbial growth incubated for 48 hrs by broth microdilution method; assay type: functional
[28] = system: Staphylococcus aureus; test: Antibacterial activity against methicillin sensitive Staphylococcus aureus NRS107 assessed as reduction in microbial growth by CLSI based broth microdilution method; assay type: functional
[29] = system: Clostridioides difficile; test: Selectivity ratio of MBC for antibacterial activity against Clostridioides difficile NR-49278 to MIC for antibacterial activity against Clostridioides difficile NR-49278; assay type: functional
[30] = system: Clostridioides difficile; test: Antibacterial activity against Clostridioides difficile NR-49286 assessed as reduction in microbial growth incubated for 48 hrs by broth microdilution method; assay type: functional
[31] = system: Clostridioides difficile; test: Antibacterial activity against Clostridioides difficile NR-49285 assessed as reduction in microbial growth incubated for 48 hrs by broth microdilution method; assay type: functional
[32] = system: Clostridioides difficile; test: Antibacterial activity against Clostridioides difficile ATCC 43255 assessed as reduction in microbial growth incubated for 48 hrs by broth microdilution method; assay type: functional
[33] = system: Lactobacillus gasseri; test: Antibacterial activity against Lactobacillus gasseri HM 407 assessed as reduction in microbial growth incubated for 48 hrs by broth microdilution method; assay type: functional
[34] = system: Clostridioides difficile; test: Selectivity ratio of MBC for antibacterial activity against Clostridioides difficile NR-32895 to MIC for antibacterial activity against Clostridioides difficile NR-32895; assay type: functional
[35] = system: Clostridioides difficile; test: Selectivity ratio of MBC for antibacterial activity against Clostridioides difficile NR-32904 to MIC for antibacterial activity against Clostridioides difficile NR-32904; assay type: functional
[36] = system: Clostridioides difficile; test: Antibacterial activity against Clostridioides difficile NR-49294 assessed as reduction in microbial growth incubated for 48 hrs by broth microdilution method; assay type: functional
[37] = system: Clostridioides difficile; test: Antibacterial activity against Clostridioides difficile NR-49279 assessed as reduction in microbial growth incubated for 48 hrs by broth microdilution method; assay type: functional
[38] = system: Enterococcus faecalis; test: Antibacterial activity against Enterococcus faecalis ATCC 51299 assessed as reduction in microbial growth by CLSI based broth microdilution method; assay type: functional
[39] = system: Clostridioides difficile; test: Antibacterial activity against Clostridioides difficile NR-13436 assessed as reduction in microbial growth incubated for 48 hrs by broth microdilution method; assay type: functional
[40] = system: Clostridioides difficile; test: Selectivity ratio of MBC for antibacterial activity against Clostridioides difficile ATCC BAA1870 to MIC for antibacterial activity against Clostridioides difficile ATCC BAA1870; assay type: functional
[41] = system: Clostridioides difficile; test: Antibacterial activity against Clostridioides difficile NR-32889 assessed as reduction in microbial growth incubated for 48 hrs by broth microdilution method; assay type: functional
[42] = system: Clostridioides difficile; test: Bactericidal activity against Clostridioides difficile ATCC 43255 assessed as reduction in microbial growth by broth microdilution method; assay type: functional

## O=C(Nc1ncc([N+](=O)[O-])s1)C1CN(c2cccc(Cl)c2)N(c2cccc(Cl)c2)C1=O (configuration not stated)
[1]
  MIC: 64 µg/mL
[2]
  MIC: 4 µg/mL
[3]
  MIC: 16 µg/mL
[4]
  MBC: 1 µg/mL
[5]
  MBC: 0.5 µg/mL
[6]
  MIC: 64 µg/mL
[7]
  MIC: > 64 µg/mL
[8]
  MIC: 4 µg/mL
[9]
  MIC: 0.25 µg/mL
[10]
  MBC: 0.25 µg/mL
[11]
  IC50: 9.8 µM
[12]
  MIC: 8 µg/mL
[13]
  MIC: 32 µg/mL
[14]
  Ratio: 1
[15]
  inhibition: 67.6%
[16]
  MIC: 0.5 µg/mL
[17]
  MIC: 0.5 µg/mL
[18]
  MIC: 0.5 µg/mL
[19]
  Stability: Stable
[20]
  MIC: 0.5 µg/mL
[21]
  MBC: 1 µg/mL
[22]
  MIC: 0.5 µg/mL
[23]
  MIC: 0.5 µg/mL
[24]
  MIC: 10 µM
[25]
  MIC: > 40 µM
[26]
  MIC: 8 µg/mL
[27]
  MIC: 1 µg/mL
[28]
  MIC: 2 µg/mL
[29]
  Ratio: 1
[30]
  MIC: 0.5 µg/mL
[31]
  MIC: 0.5 µg/mL
[32]
  MIC: 0.125 µg/mL
[33]
  MIC: > 64 µg/mL
[34]
  Ratio: 1
[35]
  Ratio: 1
[36]
  MIC: 0.5 µg/mL
[37]
  MIC: 0.25 µg/mL
[38]
  MIC: > 64 µg/mL
[39]
  MIC: 0.5 µg/mL
[40]
  Ratio: 1
[41]
  MIC: 0.5 µg/mL
[42]
  MBC: 0.25 µg/mL

Reference: ChEMBL document CHEMBL5537113, “Discovery of 1,2-diaryl-3-oxopyrazolidin-4-carboxamides as a new class of MurA enzyme inhibitors and characterization of their antibacterial activity” (Eur J Med Chem, 2023)
